Laboratory results: ChEMBL document CHEMBL5113438, “Discovery of highly potent and selective CRBN-recruiting EGFRL858R/T790M degraders in vivo” (Eur J Med Chem, 2022)

Tests used:
HCC827 = assay: Antiproliferative activity against human NCI-HCC827 cells expressing EGFR del19 incubated for 72 hrs by CCK-8 assay; assay type: functional, cell-based; settings: HCC827, 72 h
NCI-H1299 [1] = assay: Antiproliferative activity against human NCI-H1299 cells expressing wild type EGFR incubated for 72 hrs by CCK-8 assay; assay type: functional, cell-based; settings: NCI-H1299, 72 h
NCI-H1975 [2] = assay: Antiproliferative activity against human NCI-H1975 cells expressing EGFR L858R/T790M incubated for 72 hrs by CCK-8 assay; assay type: functional, cell-based; settings: NCI-H1975, 72 h
[3] = Selectivity ratio IC50 for human NCI-H1299 cells expressing wild type EGFR to human NCI-H1975 cells expressing EGFR L858R/T790M; assay type: functional
A549 = assay: Antiproliferative activity against human A549 cells expressing wild type EGFR incubated for 72 hrs by CCK-8 assay; assay type: functional, cell-based; settings: A549, 72 h
BaF3 [4] = assay: Antiproliferative activity against mouse BaF3 harbouring EGFR L858R/T790M mutant assessed as inhibition of cell growth incubated for 72 hrs by MTS assay; assay type: functional, cell-based; settings: BaF3, 72 h
BaF3 [5] = assay: Antiproliferative activity against mouse BaF3 harbouring EGFR L858R/T790M/L718Q mutant assessed as inhibition of cell growth incubated for 72 hrs by MTS assay; assay type: functional, cell-based; settings: BaF3, 72 h
BaF3 [6] = assay: Antiproliferative activity against mouse BaF3 harbouring EGFR L858R/T790M/C797S mutant assessed as inhibition of cell growth incubated for 72 hrs by MTS assay; assay type: functional, cell-based; settings: BaF3, 72 h
NCI-H1299 [7] = assay: Induction of apoptosis in human NCI-H1299 cells assessed as early apoptotic cells at 1.0 uM incubated for 48 hrs by AnnexinV-FITC/propidium iodide staining based flow cytometry analysis (reference value: 0.11 % ); assay type: functional
[8] = Plasma protein binding in rat assessed as unbound fraction at 1 uM incubated for 4 hrs by rapid equilibrium dialysis method; assay type: ADME, cell-free; settings: read-out: PPB (converted)
NCI-H1975 [9] = assay: Induction of apoptosis in human NCI-H1975 cells assessed as viable cells at 1.0 uM incubated for 48 hrs by AnnexinV-FITC/propidium iodide staining based flow cytometry analysis (reference value: 96.2 % ); assay type: functional; settings: read-out: Activity
NCI-H1299 [10] = assay: Induction of apoptosis in human NCI-H1299 cells assessed as late apoptotic cells at 1.0 uM incubated for 48 hrs by AnnexinV-FITC/propidium iodide staining based flow cytometry analysis (reference value: 1.53 % ); assay type: functional
NCI-H1299 [11] = assay: Induction of apoptosis in human NCI-H1299 cells assessed as viable cells at 0.1 uM incubated for 48 hrs by AnnexinV-FITC/propidium iodide staining based flow cytometry analysis (reference value: 98.05 % ); assay type: functional; settings: read-out: Activity
NCI-H1975 [12] = assay: Induction of apoptosis in human NCI-H1975 cells assessed as necrotic cells at 1.0 uM incubated for 48 hrs by AnnexinV-FITC/propidium iodide staining based flow cytometry analysis (reference value: 3.28 % ); assay type: functional
NCI-H1975 [13] = assay: Induction of apoptosis in human NCI-H1975 cells assessed as necrotic cells at 0.1 uM incubated for 48 hrs by AnnexinV-FITC/propidium iodide staining based flow cytometry analysis (reference value: 3.28 % ); assay type: functional
NCI-H1299 [14] = assay: Induction of apoptosis in human NCI-H1299 cells assessed as late apoptotic cells at 0.1 uM incubated for 48 hrs by AnnexinV-FITC/propidium iodide staining based flow cytometry analysis (reference value: 1.53 % ); assay type: functional
NCI-H1299 [15] = assay: Induction of apoptosis in human NCI-H1299 cells assessed as early apoptotic cells at 0.1 uM incubated for 48 hrs by AnnexinV-FITC/propidium iodide staining based flow cytometry analysis (reference value: 0.11 % ); assay type: functional
NCI-H1299 [16] = assay: Induction of apoptosis in human NCI-H1299 cells assessed as viable cells at 1.0 uM incubated for 48 hrs by AnnexinV-FITC/propidium iodide staining based flow cytometry analysis (reference value: 98.05 % ); assay type: functional; settings: read-out: Activity
NCI-H1975 [17] = assay: Induction of apoptosis in human NCI-H1975 cells assessed as early apoptotic cells at 0.1 uM incubated for 48 hrs by AnnexinV-FITC/propidium iodide staining based flow cytometry analysis (reference value: 0.11 % ); assay type: functional
NCI-H1299 [18] = assay: Induction of apoptosis in human NCI-H1299 cells assessed as necrotic cells at 0.1 uM incubated for 48 hrs by AnnexinV-FITC/propidium iodide staining based flow cytometry analysis (reference value: 0.24 % ); assay type: functional
NCI-H1975 [19] = assay: Induction of apoptosis in human NCI-H1975 cells assessed as viable cells at 0.1 uM incubated for 48 hrs by AnnexinV-FITC/propidium iodide staining based flow cytometry analysis (reference value: 96.2 % ); assay type: functional; settings: read-out: Activity
NCI-H1975 [20] = assay: Induction of apoptosis in human NCI-H1975 cells assessed as late apoptotic cells at 1.0 uM incubated for 48 hrs by AnnexinV-FITC/propidium iodide staining based flow cytometry analysis (reference value: 1.35 % ); assay type: functional
NCI-H1975 [21] = assay: Induction of apoptosis in human NCI-H1975 cells assessed as late apoptotic cells at 0.1 uM incubated for 48 hrs by AnnexinV-FITC/propidium iodide staining based flow cytometry analysis (reference value: 1.35 % ); assay type: functional
NCI-H1975 [22] = assay: Induction of apoptosis in human NCI-H1975 cells assessed as early apoptotic cells at 1.0 uM incubated for 48 hrs by AnnexinV-FITC/propidium iodide staining based flow cytometry analysis (reference value: 0.11 % ); assay type: functional
NCI-H1299 [23] = assay: Induction of apoptosis in human NCI-H1299 cells assessed as necrotic cells at 1.0 uM incubated for 48 hrs by AnnexinV-FITC/propidium iodide staining based flow cytometry analysis (reference value: 0.24 % ); assay type: functional
[24] = target: von Hippel-Lindau disease tumor suppressor/Epidermal growth factor receptor (Homo sapiens, UniProt P00533+P40337, L858R/T790M); assay: Protac activity at VHL/EGFR L858R/T790M mutant in human NCI-H1975 cells assessed as induction of degradation of EGFR incubated for 24 hrs in presence of afatinib by immunoblot analysis; assay type: cell-based
Chain of von Hippel-Lindau disease tumor suppressor/Epidermal growth factor receptor (P00533 25-1210 T790M/L858R limits assumed, stated change not applied): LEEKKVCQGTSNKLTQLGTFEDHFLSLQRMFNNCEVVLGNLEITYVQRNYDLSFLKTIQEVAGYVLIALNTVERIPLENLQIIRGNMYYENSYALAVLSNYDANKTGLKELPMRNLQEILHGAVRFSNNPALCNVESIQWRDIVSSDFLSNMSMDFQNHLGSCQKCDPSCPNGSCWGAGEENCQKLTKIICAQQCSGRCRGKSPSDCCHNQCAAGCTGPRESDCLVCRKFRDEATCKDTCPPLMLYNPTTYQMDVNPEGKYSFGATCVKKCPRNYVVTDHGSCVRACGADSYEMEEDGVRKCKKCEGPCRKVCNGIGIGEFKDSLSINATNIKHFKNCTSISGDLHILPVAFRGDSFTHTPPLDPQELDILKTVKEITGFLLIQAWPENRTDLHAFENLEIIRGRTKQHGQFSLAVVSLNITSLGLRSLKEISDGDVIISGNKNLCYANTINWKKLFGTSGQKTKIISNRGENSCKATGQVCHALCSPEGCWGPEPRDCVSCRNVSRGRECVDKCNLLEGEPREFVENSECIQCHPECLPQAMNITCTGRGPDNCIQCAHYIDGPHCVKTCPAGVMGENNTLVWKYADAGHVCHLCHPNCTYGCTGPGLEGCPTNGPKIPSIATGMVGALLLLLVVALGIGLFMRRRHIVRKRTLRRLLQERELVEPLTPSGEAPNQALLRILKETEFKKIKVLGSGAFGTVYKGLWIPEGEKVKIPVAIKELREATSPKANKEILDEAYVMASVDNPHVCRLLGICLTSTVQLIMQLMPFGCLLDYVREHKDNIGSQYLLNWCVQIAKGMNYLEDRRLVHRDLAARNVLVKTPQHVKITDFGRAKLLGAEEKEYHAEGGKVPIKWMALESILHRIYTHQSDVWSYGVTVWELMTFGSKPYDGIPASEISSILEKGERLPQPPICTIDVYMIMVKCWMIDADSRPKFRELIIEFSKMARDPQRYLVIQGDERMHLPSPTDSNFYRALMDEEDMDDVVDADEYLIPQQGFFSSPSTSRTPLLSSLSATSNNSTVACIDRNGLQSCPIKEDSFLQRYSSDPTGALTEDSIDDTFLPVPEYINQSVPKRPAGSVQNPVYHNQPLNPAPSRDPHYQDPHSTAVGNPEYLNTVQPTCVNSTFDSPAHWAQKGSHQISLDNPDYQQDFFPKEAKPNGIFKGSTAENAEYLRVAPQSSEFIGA
Chain of von Hippel-Lindau disease tumor suppressor/Epidermal growth factor receptor (P40337 whole entry, stated change not applied): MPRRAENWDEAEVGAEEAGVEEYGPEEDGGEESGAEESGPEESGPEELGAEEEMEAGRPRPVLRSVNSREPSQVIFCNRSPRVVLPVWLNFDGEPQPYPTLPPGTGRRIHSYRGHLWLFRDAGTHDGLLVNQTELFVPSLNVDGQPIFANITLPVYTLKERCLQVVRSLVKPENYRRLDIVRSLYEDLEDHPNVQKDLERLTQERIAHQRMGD

Structure (SMILES)	IC50 (HCC827) [nM]	IC50 (NCI-H1299 [1]) [nM]	IC50 (NCI-H1975 [2]) [nM]	Ratio IC50 [3]	IC50 (A549) [nM]	other results
C#CCN(CCCCCCCCC(=O)Nc1cccc2c1CN(C1CCC(=O)NC1=O)C2=O)CCN(C)c1cc(OC)c(Nc2nccc(-c3cn(C)c4ccccc34)n2)cc1NC(=O)C=C (stereo unspecified)	1160	> 100000	3230	31	> 100000	
C#CCN(CCCCC(=O)Nc1cccc2c1CN(C1CCC(=O)NC1=O)C2=O)CCN(C)c1cc(OC)c(Nc2nccc(-c3cn(C)c4ccccc34)n2)cc1NC(=O)C=C (stereo unspecified)	309	> 100000	1020	98	> 100000	
O=C1CCC(N2C(=O)c3cccc(NCCOCCOCCOCCN4CCN(c5ccc(-c6ccc7c(c6)C(=O)N(C(C(=O)Nc6nccs6)c6ccccc6)C7)cn5)CC4)c3C2=O)C(=O)N1 (stereo unspecified)						IC50 (BaF3 [4]): 50 nM; IC50 (BaF3 [5]): 28 nM; IC50 (BaF3 [6]): 41 nM
C=CC(=O)Nc1cc(Nc2nccc(-c3cn(C)c4ccccc34)n2)c(OC)cc1N(C)CCN(C)C [OSIMERTINIB]	2.48	3240	[…]	[…]	445	Activity (NCI-H1299 [7]): 0.075%; fraction unbound at 4 h, 1 µM [8]: 0.0133; viability at 1 µM (NCI-H1975 [9]): 56.4%; Activity (NCI-H1299 [10]): 2.14%; viability at 0.1 µM (NCI-H1299 [11]): 98.2%; Activity (NCI-H1975 [12]): 7.27%; Activity (NCI-H1975 [13]): 6.89%; Activity (NCI-H1299 [14]): […]; Activity (NCI-H1299 [15]): 0.08%; viability at 1 µM (NCI-H1299 [16]): 97.3%; Activity (NCI-H1975 [17]): […]; Activity (NCI-H1299 [18]): 0.34%; viability at 0.1 µM (NCI-H1975 [19]): 90.1%; Activity (NCI-H1975 [20]): 34.7%; Activity (NCI-H1975 [21]): 3.83%; Activity (NCI-H1975 [22]): 1.7%; Activity (NCI-H1299 [23]): 0.5%
Cc1ccsc1-c1ccc(CNC(=O)[C@@H]2C[C@@H](O)CN2C(=O)[C@@H](NC(=O)CCCCCOCCCCOCCCCOc2cc3ncnc(Nc4ccc(F)c(Cl)c4)c3cc2NC(=O)/C=C/CN(C)C)C(C)(C)C)cc1						EC50 [24]: 216 nM
C#CCN(CCCCCCCC(=O)Nc1cccc2c1CN(C1CCC(=O)NC1=O)C2=O)CCN(C)c1cc(OC)c(Nc2nccc(-c3cn(C)c4ccccc34)n2)cc1NC(=O)C=C (stereo unspecified)	457	> 100000	1360	74	> 100000	
C#CCN(CCCCCCCCCC(=O)Nc1cccc2c1CN(C1CCC(=O)NC1=O)C2=O)CCN(C)c1cc(OC)c(Nc2nccc(-c3cn(C)c4ccccc34)n2)cc1NC(=O)C=C (stereo unspecified)	2650	> 100000	6800	14	> 100000	
C#CCN(CCCCCC(=O)Nc1cccc2c1CN(C1CCC(=O)NC1=O)C2=O)CCN(C)c1cc(OC)c(Nc2nccc(-c3cn(C)c4ccccc34)n2)cc1NC(=O)C=C (stereo unspecified)	649	> 100000	3560	28	> 100000	
C#CCN(CCCCCCC(=O)Nc1cccc2c1CN(C1CCC(=O)NC1=O)C2=O)CCN(C)c1cc(OC)c(Nc2nccc(-c3cn(C)c4ccccc34)n2)cc1NC(=O)C=C (stereo unspecified)	358	> 100000	1110	90	> 100000	
